US7390783B2, “Charged phospholipid compositions and methods for their use” (Ottawa Heart Institute Research Corporation, priority 2000, dated 2008)
“Also recorded” adds a separate entry of the source.

Columns and labels:
HDL, LDL and VLDL = assay: Lipoprotein surface charge after injection of PI or PC vesicles into rabbits (agarose gel electrophoresis); assay type: in vivo, rabbit; conditions: intravenous injection of vesicles, fasted rabbit
Protocol: (§1) 1-palmitoyl-2-oleoyl-phosphatidylcholine (PC) and 1-palmitoyl-2-oleoyl phosphatidylinositol (PI) vesicles are prepared by drying to completion 40 μmol of each lipid into a 12×75 mm culture tube under N2. The lipids are solubilized in 3 mL of sterile saline comprising 150 mM sodium chloride (pH 7.2) by sonication for 1 minute at constant duty cycle. The vesicles are incubated at 37° C. for 10 minutes and then sonicated at a high output for 4 minutes in 10° C. water bath under N2. In order to determine the rate of clearance of cholesterol from the test animals (rabbits), a radioactive tracer is added to the vesicle preparations prior to injection into the rabbit. 200 μL of 1 μCi/μmL [^3H]-FC is dried into a 12×75 mm culture tube with 40 μmol of PI or POPC. 3 ml of PBS is added to the dried lipids and the mixture is sonicated as described above. This tracer/vesicle preparation is injected and then 5 min later, the PI or PC vesicles were injected and blood is sampled as described below.
(§2) Male New Zealand white rabbits (3.5-4.0 kg) are fasted for 12 hours prior to injection and remain fasted until after data for the final time point is taken. Rabbits have free access to water during this time. A catheter is inserted into the marginal ear vein and blood samples are collected into tubes containing 7.5% (K3) EDTA solution at the desired time points. A pre-injection blood sample is taken and the vesicle solution of either PI (n=4), or PC (n=2) or saline (n=1) is injected into the marginal ear vein. A sample of blood is removed at 10, 30 min, 1, 3, 6 and 24 h after the injection. All blood samples are placed on ice and then centrifuged at 3000 rpm for 15 min at 4° C. to separate the plasma. In order to ensure that lecithin:cholesterol acyl transferase (LCAT) is inhibited in the stored plasma, iodoacetamide (150 mM) is added to plasma samples as taught by Guerin et al. (1994).
Lipoprotein fractions are isolated by sequential ultracentrifugation (VLDL+IDL, d<1.019 g/mL; LDL, d=1.019-1.063 g/mL; and HDL, d=1.063-1.21 g/mL) as known to one of skill in the art, and lipoprotein lipid composition (total cholesterol, free cholesterol (FC), and triglyceride (TG) concentrations) are determined enzymatically using kits from Roche Diagnostic (Laval, PQ). An aliquot of each lipoprotein isolated is dialysed into PBS and its surface charge characteristics were determined by electrophoresis on pre-cast 0.5% agarose gels using the procedure of Sparks and Phillips (1992).
Referring now to FIG. 1, there is illustrated the effect of injection of PI and PC vesicles on the estimated surface potential of HDL, LDL, and VLDL proteins in vivo. […] PC, which is a neutral phospholipid, may also bind to the lipoproteins. However since PC is a neutral phospholipid, no significant change in the migration of the lipoproteins is observed. The increased migratory property of lipoproteins in a gel peaks following injection of PI and returns to normal by about 24 hours. […] Similarly, the VLDL fraction is estimated to have an initial surface potential of about −8.8 mV, which increases to about −11.2 mV after 10 minutes. LDL is estimated to have an initial surface potential of about −3.9 mV, and peaks about 60 min after the PI injection at about −8.0 mV.

[1] = target: T1, lecithin:cholesterol acyltransferase (LCAT) (Oryctolagus cuniculus, UniProt P53761); assay: Plasma cholesterol esterification by LCAT after injection of PC or PI; assay type: in vivo, rabbit; conditions: after injection of vesicles
T1 construct: endogenous LCAT activity is reduced to about 18% that of normal; from tissue; host or cells: plasma of PI- or PC-injected rabbits
T1 sequence (P53761 25-440): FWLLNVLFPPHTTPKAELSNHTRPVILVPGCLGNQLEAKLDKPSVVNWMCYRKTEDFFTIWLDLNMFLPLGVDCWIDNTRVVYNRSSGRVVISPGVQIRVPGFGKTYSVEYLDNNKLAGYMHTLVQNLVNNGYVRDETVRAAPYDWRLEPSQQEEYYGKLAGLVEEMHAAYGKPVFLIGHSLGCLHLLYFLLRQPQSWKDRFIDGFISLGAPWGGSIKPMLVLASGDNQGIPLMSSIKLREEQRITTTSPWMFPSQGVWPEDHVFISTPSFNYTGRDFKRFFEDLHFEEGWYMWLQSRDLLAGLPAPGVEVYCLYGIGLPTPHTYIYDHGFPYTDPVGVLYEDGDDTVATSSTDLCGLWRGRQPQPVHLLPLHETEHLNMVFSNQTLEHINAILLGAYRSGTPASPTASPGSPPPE
Protocol: Male New Zealand white rabbits (3.5-4.0 kg) are fasted for 12 hours prior to injection and remain fasted until after data for the final time point is taken. Rabbits have free access to water during this time. A catheter is inserted into the marginal ear vein and blood samples are collected into tubes containing 7.5% (K3) EDTA solution at the desired time points. A pre-injection blood sample is taken and the vesicle solution of either PI (n=4), or PC (n=2) or saline (n=1) is injected into the marginal ear vein. A sample of blood is removed at 10, 30 min, 1, 3, 6 and 24 h after the injection. All blood samples are placed on ice and then centrifuged at 3000 rpm for 15 min at 4° C. to separate the plasma. In order to ensure that lecithin:cholesterol acyl transferase (LCAT) is inhibited in the stored plasma, iodoacetamide (150 mM) is added to plasma samples as taught by Guerin et al. (1994). The effect of PI on LCAT activity is examined using plasma samples that are not treated with iodoacetamide. 400 μL aliquots of plasma for each time point are incubated for 30 min with 10 μCi of [^3H]-FC on filter paper discs (Dobiasova et al., 1991) at 37° C. and the reaction is terminated with the addition of 2 mL ethanol. Reaction products are extracted in hexane and the amount of [^3H] associated with CE and FC is determined by thin layer chromatography. […] However, endogenous LCAT activity is reduced to about 18% that of normal (PC injected control) after about 10 min post injection of PI. Also, PI injection reduces the fractional rate of cholesterol esterification from about 45% to about 8%, of initial values, per hour. […] To investigate the effect of PI on the production and transport of CE in the plasma, the amount of radioactive CE was measured at each time point (data not shown). […] Rather it appears that PI may modify intravascular cholesterol levels by mobilizing a cellular cholesterol pool.

[2] = system: lipoprotein CE and FC in whole blood (red blood cells); assay: Incubation of whole blood with PC or PI vesicles: lipoprotein CE and FC; assay type: cell-based, human
Protocol: Referring now to FIG. 4, there is graphically depicted the effect of PI or PC vesicles on lipoprotein CE and FC. Incubation of whole blood with PC vesicles results in a 60% increase in the CE content of the lipoproteins, while FC content is reduced by about 10%. […] Negatively charged phospholipids appeared to promote a reciprocal exchange of CE for FC between red blood cells and the lipoprotein particles. […] It has previously been taught that red blood cells cannot store CE and therefore utilize a membrane-bound CE hydrolase to maintain membrane FC levels. Without wishing to be bound by theory, the results therefore indicate that PI stimulates the degradation of lipoprotein CE.

[^3H]-FC in plasma = Clearance of [^3H]-FC from the blood of a rabbit; assay type: in vivo
Protocol: as §1, §2
Referring now to FIG. 5, there is shown the clearance of [^3H]-FC at various times after rabbits are injected with [^3H]-FC and either PI or PC vesicles. […] In comparison, rabbits injected with PC contain approximately 90% of the injected radioactivity after 1 h.

[3] = system: faecal cholesterol output; assay: Faecal cholesterol excretion after PI or PC injection; assay type: in vivo, rabbit; conditions: injection into a rabbit
Protocol: Rabbits are injected with 40 μmol PI or PC vesicles containing 400 μCi […]. Animals are sacrificed at 30 min, and bile is aspirated from the gall bladder. In addition the livers are harvested, homogenized and tissue radioactivity determined. Sterol excretion in the faeces is measured similarly except that faecal cholesterol levels are measured over a time period of 96 hours. Referring now to FIG. 7, there is graphically depicted the effect of PI injection associated with sterol excretion. […] PC injection into a rabbit had no effect on cholesterol excretion, while PI injection enhanced faecal cholesterol output by about 300% at 2 days post injection. The increase in cholesterol output returned to normal by about day 4.

Human plasma = assay: Plasma clotting time (prothrombin time); assay type: biochemical; conditions: human plasma incubated with increasing amounts of vesicles, 24 h at 4° C.
Protocol: Referring now to FIG. 11, there is shown the effect of charged lipid on blood coagulation. Human plasma was incubated with various amounts of uncharged vesicles, phosphatidylcholine (PC) or anionic vesicles, phosphatidylinositol (PI), for 24 h at 4° C. Prothrombin time was then measured with the use of a commercially available kit.

lipoprotein lipase = target: T2, lipoprotein lipase (Homo sapiens, UniProt P06858); assay: Lipid hydrolysis by lipoprotein lipase in plasma enriched with charged lipid; assay type: biochemical; conditions: not shown
T2 sequence (P06858 28-475): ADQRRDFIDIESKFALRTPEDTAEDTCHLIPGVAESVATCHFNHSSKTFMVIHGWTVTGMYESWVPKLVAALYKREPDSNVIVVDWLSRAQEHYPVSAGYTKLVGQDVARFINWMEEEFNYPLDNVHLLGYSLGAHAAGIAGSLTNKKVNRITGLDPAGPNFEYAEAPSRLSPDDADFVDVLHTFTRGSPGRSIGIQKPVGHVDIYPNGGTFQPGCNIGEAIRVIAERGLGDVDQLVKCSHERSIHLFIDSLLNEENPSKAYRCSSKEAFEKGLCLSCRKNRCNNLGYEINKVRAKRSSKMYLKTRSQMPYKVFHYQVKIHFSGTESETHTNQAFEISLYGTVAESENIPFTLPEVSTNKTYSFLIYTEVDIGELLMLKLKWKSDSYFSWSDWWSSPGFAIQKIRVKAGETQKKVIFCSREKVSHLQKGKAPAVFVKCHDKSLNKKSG
From the text: Referring now to FIG. 10, there is shown the effect of lipoprotein charge on hepatic lipase. High density lipoprotein particles were enriched to contain various amounts of anionic or cationic lipids and then characterized as substrates for pure human hepatic lipase. Decreasing the net negative charge on the lipoprotein was associated with a reduction in the lipolytic activity of is hepatic lipase. Lipoprotein charge can also be used to regulate lipoprotein lipase. […] Lipid hydrolysis by hepatic or lipoprotein lipase can therefore be affected by alterations in the charge properties of plasma lipoproteins.

[4] = system: VLDL, LDL and HDL in human plasma; assay: Lipoprotein charge in human plasma incubated with PI or DOTAP vesicles; assay type: biochemical; conditions: 24 h at 4° C.; for Lipoprotein Surface Charge LDL: no lipid 2.5; for Lipoprotein Surface Charge VLDL: no lipid 5.5; for Lipoprotein Surface Charge HDL: no lipid 11.8
Protocol: Different concentrations as shown below of negatively charged phospholipid (PI) or positively charged phospholipid (DOTAP) were added to human plasma and the surface charge on the lipoproteins was determined. The human plasma was incubated with PI or dioleoyl trimethylammonium-propane (DOTAP) vesicles for 24 h at 4° C. and then electrophoresed on 0.5% agarose. Lipoprotein charge was calculated from electrokinetic analyses.

HDL = assay: Oral administration of PS: HDL charge in a human subject; assay type: in vivo
Protocol: Referring now to FIG. 9, there is graphically depicted the results of oral administration of 300 mg of PS to a human subject. Plasma samples were drawn before, and over a 24 hour period after, administration of PS. HDL charge was determined electrokinetically after electrophoresis of the plasma samples on 0.5% agarose. […] Thus, orally administered negatively charged lipids is absorbed intestinally and alters lipoprotein charge in the blood stream.

## 1-palmitoyl-2-oleoyl-phosphatidylcholine [PC, reference compound]
HDL, LDL and VLDL
  effect on lipoprotein net negative surface charge / migration of HDL, LDL and VLDL into agarose gel: negligible effect; also recorded: did not significantly affect migration
[1]
  effect on LCAT activity / cholesteryl esterification: No appreciable change
[2]
  increase in CE content of the lipoproteins: 60%
  reduction of lipoprotein FC content: about 10%
[^3H]-FC in plasma; after about 1 h
  [^3H]-FC in plasma, of the initial dose: approximately 90%
[^3H]-FC in plasma; rabbit, in vivo
  time to clear [^3H]-FC to a comparable baseline level: > 6 h
[3]
  effect on cholesterol excretion: no effect
Human plasma
  effect on plasma clotting time (prothrombin time): no significant effect

## CCCCCCCC/C=C\CCCCCCCC(=O)OCC(C[N+](C)(C)C)OC(=O)CCCCCCC/C=C\CCCCCCCC (centres unmarked) [DOTAP, dioleoyl trimethylammonium propane]
Lipoprotein lipase
  effect on lipid hydrolysis by lipoprotein lipase: inhibited lipid hydrolysis
[4]; 5 mg/ml
  Lipoprotein Surface Charge LDL: 2.2 -mV
  Lipoprotein Surface Charge VLDL: 4.6 -mV
  Lipoprotein Surface Charge HDL: 11.4 -mV
[4]; 10 mg/ml
  Lipoprotein Surface Charge LDL: 1.9 -mV
  Lipoprotein Surface Charge VLDL: 4.6 -mV
  Lipoprotein Surface Charge HDL: 11.2 -mV
[4]; 50 mg/ml
  Lipoprotein Surface Charge LDL: 1.9 -mV
  Lipoprotein Surface Charge VLDL: 4.1 -mV
  Lipoprotein Surface Charge HDL: 11.0 -mV
[4]; 100 mg/ml
  Lipoprotein Surface Charge LDL: 1.7 -mV
  Lipoprotein Surface Charge VLDL: 4.1 -mV
  Lipoprotein Surface Charge HDL: 10.9 -mV

## phosphatidylserine [PS]
HDL; by 6 hours after 300 mg oral, from −10.9 mV before, 'over' = more negative
  HDL charge: over −12 mV
HDL; by 24 hours after 300 mg oral
  HDL charge: −11.4 mV
